According to EP0044212B1, “Herbicidal o-alkylsulfonyloxy- and o-alkylsulfonylamino-benzenesulfonamides” (E.I. DU PONT DE NEMOURS AND COMPANY, priority 1980, dated 1982):

Key:
Test in all cases: Test A greenhouse herbicide screen
Bush Bean = format: in vivo, bush beans; details: POST-EMERGENCE, 16 days
Source text: (§1) Seeds of crabgrass (Digitaria spp.), barnyardgrass (Echinochloa crusgalli), wild oats (Avena fatua), cassia (Cassia tora), morningglory (Ipomoea sp.), cocklebur (Xanthium spp.), sorghum, corn, soybean, rice, wheat and nutsedge tubers (Cyperus rotundus) were planted in a growth medium and treated preemergence with the chemicals dissolved in a non-phytotoxic solvent solution of the compounds of Table A. At the same time, cotton having five leaves (including cotyledonary ones), bush beans with the third trifoliate leaf expanding, crabgrass and barnyardgrass with two leaves, wild oats with two leaves, cassia with three leaves (including cotyledonary ones), morningglory and cocklebur with four leaves (including the cotyldonary ones), sorghum and corn with four leaves, soybean with two cotyledonary leaves, rice with three leaves, wheat with one leaf, and nutsedge with three-five leaves were sprayed with a non-phytotoxic solvent solution of the compounds of Table A. Other containers of the above mentioned weeds and crops were treated pre- or post-emergence with the same non-phytotoxic solvent so as to provide a solvent control. A set of untreated control plants was also included for comparison. Pre- emergence and post-emergence treated plants and controls were maintained in a greenhouse for sixteen days, then all treated plants were compared with their respective controls and rated visually for response to treatment.

Corn = format: in vivo; details: 16 days
Source text: as §1

Cotton = format: in vivo; details: POST-EMERGENCE, 16 days
Source text: as §1

Sorghum = format: in vivo; details: 16 days
Source text: as §1

Wild Oats = format: in vivo, Avena fatua; details: 16 days
Source text: as §1

Rice = format: in vivo; parameters: scale not given here; details: 16 days
Source text: as §1

Soybean = format: in vivo; parameters: scale not given here; details: 16 days
Source text: as §1

Wheat = format: in vivo; parameters: scale not given here; details: 16 days
Source text: as §1

Barnyardgrass = format: in vivo, Echinochloa crusgalli; details: 16 days
Source text: as §1

Crabgrass = format: in vivo, Digitaria spp.; parameters: scale not given here; details: 16 days
Source text: as §1

Morningglory = format: in vivo, Ipomoea sp.; details: 16 days
Source text: as §1

Cocklebur = format: in vivo, Xanthium spp.; details: 16 days
Source text: as §1

Cassia = format: in vivo, Cassia tora; parameters: scale not given here; details: 16 days
Source text: as §1

Nutsedge = format: in vivo, Cyperus rotundus; parameters: scale not given here; details: 16 days
Source text: as §1

SMILES: COc1nc(C)nc(NC(=O)NS(=O)(=O)c2cc(Cl)cc(Cl)c2OS(C)(=O)=O)n1 [Compound 43]
- Bush Bean response rating (Bush Bean; 2 kg/ha): 0
- Bush Bean response rating (Bush Bean; 6 kg/ha): 3C
- Corn response rating (Corn; POST-EMERGENCE, 2 kg/ha): 0
- Corn response rating (Corn; POST-EMERGENCE, 6 kg/ha): 0
- Corn response rating (Corn; PRE-EMERGENCE, 2 kg/ha): 0
- Cotton response rating (Cotton; 2 kg/ha): 0
- Cotton response rating (Cotton; 6 kg/ha): 3C
- Sorghum response rating (Sorghum; POST-EMERGENCE, 2 kg/ha): 0
- Sorghum response rating (Sorghum; POST-EMERGENCE, 6 kg/ha): 0
- Sorghum response rating (Sorghum; PRE-EMERGENCE, 2 kg/ha): 0
- Wild Oats response rating (Wild Oats; POST-EMERGENCE, 2 kg/ha): 0
- Wild Oats response rating (Wild Oats; POST-EMERGENCE, 6 kg/ha): 0
- Wild Oats response rating (Wild Oats; PRE-EMERGENCE, 2 kg/ha): 0
- Rice response rating (Rice; POST-EMERGENCE, 2 kg/ha): 0
- Rice response rating (Rice; POST-EMERGENCE, 6 kg/ha): 0
- Rice response rating (Rice; PRE-EMERGENCE, 2 kg/ha): 0
- Rice response rating (Rice; PRE-EMERGENCE, 6 kg/ha): 1C
- Soybean response rating (Soybean; POST-EMERGENCE, 2 kg/ha): 0
- Soybean response rating (Soybean; POST-EMERGENCE, 6 kg/ha): 1C
- Soybean response rating (Soybean; PRE-EMERGENCE, 2 kg/ha): 0
- Soybean response rating (Soybean; PRE-EMERGENCE, 6 kg/ha): 0
- Wheat response rating (Wheat; POST-EMERGENCE, 2 kg/ha): 0
- Wheat response rating (Wheat; POST-EMERGENCE, 6 kg/ha): 0
- Wheat response rating (Wheat; PRE-EMERGENCE, 2 kg/ha): 0
- Wheat response rating (Wheat; PRE-EMERGENCE, 6 kg/ha): 0
- Barnyardgrass response rating (Barnyardgrass; POST-EMERGENCE, 2 kg/ha): 0
- Barnyardgrass response rating (Barnyardgrass; POST-EMERGENCE, 6 kg/ha): 1C
- Barnyardgrass response rating (Barnyardgrass; PRE-EMERGENCE, 2 kg/ha): 0
- Crabgrass response rating (Crabgrass; POST-EMERGENCE, 2 kg/ha): 0
- Crabgrass response rating (Crabgrass; POST-EMERGENCE, 6 kg/ha): 0
- Crabgrass response rating (Crabgrass; PRE-EMERGENCE, 2 kg/ha): 0
- Crabgrass response rating (Crabgrass; PRE-EMERGENCE, 6 kg/ha): 2G
- Morningglory response rating (Morningglory; POST-EMERGENCE, 2 kg/ha): 0
- Morningglory response rating (Morningglory; POST-EMERGENCE, 6 kg/ha): 0
- Morningglory response rating (Morningglory; PRE-EMERGENCE, 2 kg/ha): 0
- Morningglory response rating (Morningglory; PRE-EMERGENCE, 6 kg/ha): 3C
- Cocklebur response rating (Cocklebur; POST-EMERGENCE, 2 kg/ha): 0
- Cocklebur response rating (Cocklebur; POST-EMERGENCE, 6 kg/ha): 0
- Cocklebur response rating (Cocklebur; PRE-EMERGENCE, 2 kg/ha): 0
- Cassia response rating (Cassia; POST-EMERGENCE, 2 kg/ha): 0
- Cassia response rating (Cassia; POST-EMERGENCE, 6 kg/ha): 1C
- Cassia response rating (Cassia; PRE-EMERGENCE, 2 kg/ha): 0
- Cassia response rating (Cassia; PRE-EMERGENCE, 6 kg/ha): 3G
- Nutsedge response rating (Nutsedge; POST-EMERGENCE, 2 kg/ha): 0
- Nutsedge response rating (Nutsedge; POST-EMERGENCE, 6 kg/ha): 0
- Nutsedge response rating (Nutsedge; PRE-EMERGENCE, 2 kg/ha): 0
- Nutsedge response rating (Nutsedge; PRE-EMERGENCE, 6 kg/ha): 0

SMILES: COc1nc(NC(=O)NS(=O)(=O)c2cc(Cl)cc(Cl)c2OS(C)(=O)=O)nc(OC)n1 [Compound 44]
- Bush Bean response rating (Bush Bean; 2 kg/ha): 0
- Bush Bean response rating (Bush Bean; 6 kg/ha): 0
- Corn response rating (Corn; POST-EMERGENCE, 2 kg/ha): 0
- Corn response rating (Corn; POST-EMERGENCE, 6 kg/ha): 0
- Corn response rating (Corn; PRE-EMERGENCE, 2 kg/ha): 0
- Cotton response rating (Cotton; 2 kg/ha): 0
- Cotton response rating (Cotton; 6 kg/ha): 2C
- Sorghum response rating (Sorghum; POST-EMERGENCE, 2 kg/ha): 0
- Sorghum response rating (Sorghum; POST-EMERGENCE, 6 kg/ha): 2C
- Sorghum response rating (Sorghum; PRE-EMERGENCE, 2 kg/ha): 0
- Sorghum response rating (Sorghum; PRE-EMERGENCE, 6 kg/ha): 2C
- Wild Oats response rating (Wild Oats; POST-EMERGENCE, 2 kg/ha): 0
- Wild Oats response rating (Wild Oats; POST-EMERGENCE, 6 kg/ha): 0
- Wild Oats response rating (Wild Oats; PRE-EMERGENCE, 2 kg/ha): 0
- Wild Oats response rating (Wild Oats; PRE-EMERGENCE, 6 kg/ha): 0
- Rice response rating (Rice; POST-EMERGENCE, 2 kg/ha): 0
- Rice response rating (Rice; POST-EMERGENCE, 6 kg/ha): 0
- Rice response rating (Rice; PRE-EMERGENCE, 2 kg/ha): 0
- Rice response rating (Rice; PRE-EMERGENCE, 6 kg/ha): 1C
- Soybean response rating (Soybean; POST-EMERGENCE, 2 kg/ha): 0
- Soybean response rating (Soybean; POST-EMERGENCE, 6 kg/ha): 3G
- Soybean response rating (Soybean; PRE-EMERGENCE, 2 kg/ha): 0
- Soybean response rating (Soybean; PRE-EMERGENCE, 6 kg/ha): 0
- Wheat response rating (Wheat; POST-EMERGENCE, 2 kg/ha): 0
- Wheat response rating (Wheat; POST-EMERGENCE, 6 kg/ha): 0
- Wheat response rating (Wheat; PRE-EMERGENCE, 2 kg/ha): 0
- Wheat response rating (Wheat; PRE-EMERGENCE, 6 kg/ha): 0
- Barnyardgrass response rating (Barnyardgrass; POST-EMERGENCE, 2 kg/ha): 0
- Barnyardgrass response rating (Barnyardgrass; POST-EMERGENCE, 6 kg/ha): 0
- Barnyardgrass response rating (Barnyardgrass; PRE-EMERGENCE, 2 kg/ha): 0
- Barnyardgrass response rating (Barnyardgrass; PRE-EMERGENCE, 6 kg/ha): 5C
- Crabgrass response rating (Crabgrass; POST-EMERGENCE, 2 kg/ha): 0
- Crabgrass response rating (Crabgrass; POST-EMERGENCE, 6 kg/ha): 0
- Crabgrass response rating (Crabgrass; PRE-EMERGENCE, 2 kg/ha): 0
- Crabgrass response rating (Crabgrass; PRE-EMERGENCE, 6 kg/ha): 0
- Morningglory response rating (Morningglory; POST-EMERGENCE, 2 kg/ha): 0
- Morningglory response rating (Morningglory; PRE-EMERGENCE, 2 kg/ha): 0
- Morningglory response rating (Morningglory; PRE-EMERGENCE, 6 kg/ha): 2C
- Cocklebur response rating (Cocklebur; POST-EMERGENCE, 2 kg/ha): 0
- Cocklebur response rating (Cocklebur; POST-EMERGENCE, 6 kg/ha): 0
- Cocklebur response rating (Cocklebur; PRE-EMERGENCE, 2 kg/ha): 0
- Cocklebur response rating (Cocklebur; PRE-EMERGENCE, 6 kg/ha): 5H
- Cassia response rating (Cassia; POST-EMERGENCE, 2 kg/ha): 0
- Cassia response rating (Cassia; POST-EMERGENCE, 6 kg/ha): 0
- Cassia response rating (Cassia; PRE-EMERGENCE, 2 kg/ha): 0
- Cassia response rating (Cassia; PRE-EMERGENCE, 6 kg/ha): 5G
- Nutsedge response rating (Nutsedge; POST-EMERGENCE, 2 kg/ha): 0
- Nutsedge response rating (Nutsedge; POST-EMERGENCE, 6 kg/ha): 0
- Nutsedge response rating (Nutsedge; PRE-EMERGENCE, 2 kg/ha): 0
- Nutsedge response rating (Nutsedge; PRE-EMERGENCE, 6 kg/ha): 0
